Laboratory results reported in patent US20240398773A1, “COMPOSITIONS COMPRISING OTESECONAZOLE” (Mycovia Pharmaceuticals, Inc., priority 2021, published 2024).
Like-named read-outs stand apart in the source and are kept apart here. Marks after values point to notes of the source that are not given here.

Assays:
[1] = Study CL-001 single-dose escalation in healthy subjects, plasma PK; assay type: in vivo, human; settings: for Tmax / Vd/F / half-life / Cmax / AUC(0-inf): both sexes, human, plasma
Experimental: Study Oteseconazole CL-001 (hereafter referenced as “CL-001”) was a single-center, Phase 1, double-blind, randomized, placebo-controlled, dose-escalating study in healthy adult subjects.
Sixty-four subjects (43 males and 21 females) between 18 and 55 years of age were enrolled in 8 dose groups. Within each dose group, 6 subjects received oteseconazole and 2 subjects received placebo. In the first 7 cohorts, escalating single oral doses (5, 10, 20, 40, 80, 160, or 320 mg) were administered in the fasted state using 2.5, 20, or 60 mg capsules of oteseconazole or matching placebo. An eighth cohort received a single 320 mg oral dose of oteseconazole or matching placebo after ingesting a high-fat breakfast. Subjects in Cohorts 1 through 6 were followed for 14 days for safety and PK assessments. Visits on Days 28 and 42 were added for Cohorts 7 and 8. Dose escalation proceeded only after safety and PK of the previous dose were determined.
The PK analysis was based on concentration-time data from 36 subjects who received active oteseconazole at doses between 20 mg and 320 mg. The majority of the oteseconazole plasma concentrations in Cohort 1 (5 mg) and Cohort 2 (10 mg) were below the limit of quantification (<20 ng/mL); therefore, no PK analysis could be conducted on these subjects.

[2] = Study CL-011 plasma concentrations; assay type: in vivo; settings: human
Experimental: A total of 217 subjects were randomized to receive oteseconazole and 109 subjects were randomized to receive placebo. All subjects were followed for 36 weeks after the end of treatment. Blood samples for determination of oteseconazole plasma concentrations were collected at Baseline, Day 14, Week 12, Week 24, Week 36, and Week 48 (End of Study (EOS]). Following the loading dose regimen of 150 mg oteseconazole QD for 7 days, the mean (SD) oteseconazole plasma concentration at Day 14 was 1676.2 (876.27) μg/L.

[3] = Cohort 4, single oral 40 mg, fasted, mean
[4] = Cohort 5, single oral 80 mg, fasted, mean
[5] = Cohort 6, single oral 160 mg, fasted, mean
[6] = Cohort 7, single oral 320 mg, Fasted, mean
[7] = Cohort 8, single oral 320 mg, Fed (high-fat breakfast), mean
[8] = po, 40 mg, Cohort 4, single oral 40 mg, fasted, mean
[9] = po, 80 mg, Cohort 5, single oral 80 mg, fasted, mean
[10] = po, 160 mg, Cohort 6, single oral 160 mg, fasted, mean
[11] = po, 320 mg, Cohort 7, single oral 320 mg, Fasted, mean
[12] = po, 320 mg, Cohort 8, single oral 320 mg, Fed (high-fat breakfast), mean

O[C@@](Cn1cnnn1)(c1ccc(F)cc1F)C(F)(F)c1ccc(-c2ccc(OCC(F)(F)F)cc2)cn1 [Oteseconazole, oteseconazole]
plasma concentrations with standard high-fat meal versus fasted state ([1]; 320 mg, Cohort 8 versus Cohort 7): higher plasma concentrations | plasma concentrations (majority below the limit of quantification) ([1]; Cohort 1 (5 mg) and Cohort 2 (10 mg)): < 20 ng/mL | Tlag ([1]; Cohort 3, single oral 20 mg, fasted, mean): 1.84 h | CL/F ([1]; Cohort 3, single oral 20 mg, fasted, mean, N = 5): 1.39 ^a L/h | CL/F [1, 3]: 1.30 L/h | Tlag [1, 3]: 1.58 h | CL/F [1, 4]: 1.08 L/h | Tlag [1, 4]: 1.17 h | CL/F [1, 5]: 1.67 L/h | Tlag [1, 5]: 0.75 h | CL/F [1, 6]: 1.35 L/h | Tlag [1, 6]: 0.67 h | CL/F [1, 7]: 0.406 L/h | Tlag [1, 7]: 1.25 h | Tmax ([1]; oral, 4 hours at 80 mg to 10 hours at 40 mg, read-out: Median Tmax, range over doses): 4 to 10 h | Vd/F ([1]; oral, all cohorts, read-out: Vz/F, range of cohort averages): 696 to 1650 L | half-life ([1]; po, 20 mg, Cohort 3, single oral 20 mg, fasted, N = 5): 393 h | Cmax ([1]; po, 20 mg, Cohort 3, single oral 20 mg, fasted, mean): 44.7 ng/mL | AUC(0-inf) ([1]; po, 20 mg, Cohort 3, single oral 20 mg, fasted, mean, N = 5): 16100 ng·h/mL | Vd/F ([1]; po, 20 mg, Cohort 3, single oral 20 mg, fasted, mean, N = 5, read-out: Vz/F): 696 L | Tmax ([1]; po, 20 mg, Cohort 3, single oral 20 mg, fasted, median, read-out: Tmax): 5.03 h | half-life ([1]; po, 40 mg, Cohort 4, single oral 40 mg, fasted): 548 h | AUC(0-inf) [1, 8]: 35000 ng·h/mL | Cmax [1, 8]: 79.7 ng/mL | Vd/F ([1]; po, 40 mg, Cohort 4, single oral 40 mg, fasted, mean, read-out: Vz/F): 939 L | Tmax ([1]; po, 40 mg, Cohort 4, single oral 40 mg, fasted, median, read-out: Tmax): 10 h | half-life ([1]; po, 80 mg, Cohort 5, single oral 80 mg, fasted): 536 h | AUC(0-inf) [1, 9]: 84600 ng·h/mL | Cmax [1, 9]: 165 ng/mL | Vd/F ([1]; po, 80 mg, Cohort 5, single oral 80 mg, fasted, mean, read-out: Vz/F): 761 L | Tmax ([1]; po, 80 mg, Cohort 5, single oral 80 mg, fasted, median, read-out: Tmax): 4.01 h | half-life ([1]; po, 160 mg, Cohort 6, single oral 160 mg, fasted): 618 h | AUC(0-inf) [1, 10]: 109000 ng·h/mL | Cmax [1, 10]: 180 ng/mL | Vd/F ([1]; po, 160 mg, Cohort 6, single oral 160 mg, fasted, mean, read-out: Vz/F): 1400 L | Tmax ([1]; po, 160 mg, Cohort 6, single oral 160 mg, fasted, median, read-out: Tmax): 6 h | half-life ([1]; po, 320 mg, Cohort 7, single oral 320 mg, Fasted): 873 h | AUC(0-inf) [1, 11]: 242000 ng·h/mL | Cmax [1, 11]: 338 ng/mL | Vd/F ([1]; po, 320 mg, Cohort 7, single oral 320 mg, Fasted, mean, read-out: Vz/F): 1650 L | Tmax ([1]; po, 320 mg, Cohort 7, single oral 320 mg, Fasted, median, read-out: Tmax): 5 h | half-life ([1]; po, 320 mg, Cohort 8, single oral 320 mg, Fed (high-fat breakfast)): 1470 h | AUC(0-inf) [1, 12]: 953000 ng·h/mL | Cmax [1, 12]: 988 ng/mL | Vd/F ([1]; po, 320 mg, Cohort 8, single oral 320 mg, Fed (high-fat breakfast), mean, read-out: Vz/F): 741 L | Tmax ([1]; po, 320 mg, Cohort 8, single oral 320 mg, Fed (high-fat breakfast), median, read-out: Tmax): 6 h | concentration at 12 week ([2]; 150 mg, Week 12, maximum concentration, read-out: mean (SD) plasma concentration): 3400 ng/mL | concentration at 48 week ([2]; 150 mg, Week 48, read-out: mean (SD) plasma concentration): 1150 ng/mL | concentration at 14 day ([2]; Day 14, after loading 150 mg QD for 7 days, read-out: mean (SD) plasma concentration): 1680 ng/mL
